Patent publication US20260217706A1, “HETEROCYCLIC COMPOUNDS, PREPARATION METHOD THEREFOR AND USE THEREOF” (GUANGZHOU YUFAN NANTU BIOTECHNOLOGIES CO., LTD, priority 2023, published 2026)

What was measured:
[1] = tested on: anti-CD3 activated human PBMCs; test: Effect of compounds on the level of IL-2 secretion by anti-CD3 activated human PBMCs (IL-2 ELISA); format: cell-based; conditions: compound concentration at which fold change in IL-2 = 5; hPBMCs, CD3 antibody 2 μg/mL, 48 h, compound from 3 μM
Experimental: 2. Inoculate the resuspended cells into a 96-well cell culture plate at 200 ul/well of cell suspension, and incubate in a 37° C. cell incubator for 1 h;
3. Adjust the compound concentration with DMSO, starting at a final concentration of 3 μM, and perform a 3-fold dilution sequentially for 10 concentration gradients, with an additional DMSO control well set up; and
4. Adjust the CD3 antibody to an appropriate concentration to achieve a final concentration of 2 μg/mL, mix thoroughly, and incubate in a 37° C. cell incubator for 48h.
5. After 48 h, centrifuge at 1500 rpm for 5 min to collect the supernatant of the culture medium for the human IL-2 ELISA test.
The OD values obtained from the ELISA test are converted into the fold change (FC) in IL-2 concentration. […] The EC50 is calculated using GraphPad Prism. When the fold change=5, the corresponding compound concentration is CFC=5 (in nM).

CBL-B protein = CBL-B protein (Homo sapiens, UniProt Q13191); test: CBL-B binding experiment (Streptavidin-Tb cryptate / Ligand L1 displacement); conditions: 8 nM CBL-B protein, 25° C., 60 minutes; Ki=Relative IC50/2
Chain of CBL-B protein (Q13191 whole entry): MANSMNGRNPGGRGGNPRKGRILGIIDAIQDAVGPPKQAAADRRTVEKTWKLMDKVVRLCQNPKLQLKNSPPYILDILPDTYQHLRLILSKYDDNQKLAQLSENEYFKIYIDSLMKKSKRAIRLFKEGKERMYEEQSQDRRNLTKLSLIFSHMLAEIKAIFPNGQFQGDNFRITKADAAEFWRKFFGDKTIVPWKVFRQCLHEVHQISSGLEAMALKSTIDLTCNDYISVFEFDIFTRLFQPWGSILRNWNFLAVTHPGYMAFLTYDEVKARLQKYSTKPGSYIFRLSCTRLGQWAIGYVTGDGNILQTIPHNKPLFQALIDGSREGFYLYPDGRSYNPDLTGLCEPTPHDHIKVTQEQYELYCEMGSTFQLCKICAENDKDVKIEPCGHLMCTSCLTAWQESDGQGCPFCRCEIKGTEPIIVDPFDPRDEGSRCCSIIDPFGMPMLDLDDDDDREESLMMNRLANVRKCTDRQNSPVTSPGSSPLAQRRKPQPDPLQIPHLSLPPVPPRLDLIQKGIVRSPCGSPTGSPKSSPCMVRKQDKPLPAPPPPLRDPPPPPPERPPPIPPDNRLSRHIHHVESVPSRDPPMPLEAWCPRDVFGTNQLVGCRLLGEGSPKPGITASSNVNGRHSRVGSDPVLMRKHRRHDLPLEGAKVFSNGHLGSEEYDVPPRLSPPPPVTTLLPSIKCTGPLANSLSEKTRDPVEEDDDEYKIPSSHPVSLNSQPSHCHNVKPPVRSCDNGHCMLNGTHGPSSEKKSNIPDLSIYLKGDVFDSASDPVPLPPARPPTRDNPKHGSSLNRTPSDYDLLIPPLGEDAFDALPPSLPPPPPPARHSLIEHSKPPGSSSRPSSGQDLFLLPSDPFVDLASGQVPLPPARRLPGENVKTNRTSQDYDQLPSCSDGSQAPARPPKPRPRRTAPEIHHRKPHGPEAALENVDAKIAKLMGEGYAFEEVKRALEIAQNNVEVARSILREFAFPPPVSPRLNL
In short: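 Compounds in a 10-point DMSO series met 8 nM CBL-B protein in HEPES pH 7.5/NaCl/Triton/TCEP/BSA buffer at 25° C. for 60 min. A further 60 min at room temperature preceded the luminescence read, normalised to no-protein and DMSO wells. Ki was taken as relative IC50 divided by 2.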

Structure (SMILES)	IL-2 CFC=5/nM [1]	Ki (CBL-B protein)
CCCN(Cc1cc2c(C(F)(F)F)cn(-c3cccc([C@]4(c5nncn5C)C[C@@H](C)C4)c3)c(=O)c2[nH]1)C(C)C [Compound T029, 2-((isopropyl(propyl)amino)methyl)-6-(3-((1s,3s)-3-methyl-1-(4-methyl-4H-1,2,4-triazol-3-yl)cyclobutyl)phenyl)-4-(trifluoromethyl)-1,6-dihydro-7H-pyrrolo[2,3-c]pyridin-7-one]	<500 nM	< 50 nM
C[C@H]1CCCN(Cc2cc3c(C4CC4)cn(-c4cccc(C5(c6nncn6C)CC6(CC6)C5)c4)c(=O)c3[nH]2)C1 [Compound T030, 4-cyclopropyl-2-[[(3S)-3-methyl-1-piperidyl]methyl]-6-[3-[5-(4-methyl-1,2,4-triazol-3-yl)spiro[2.3]hexan-5-yl]phenyl]-1H-pyrrolo[2,3-c]pyridin-7-one]	<500 nM	< 50 nM
C[C@H]1CCCN(Cc2cc3c(C(F)(F)F)cn(-c4cccc(C5(c6nncn6C)CCC5)c4)c(=O)c3[nH]2)C1 [Compound T033, 2-[[(3S)-3-methyl-1-piperidyl]methyl]-6-[3-[1-(4-methyl-1,2,4-triazol-3-yl)cyclobutyl]phenyl]-4-(trifluoromethyl)-1H-pyrrolo[2,3-c]pyridin-7-one]	<500 nM	< 50 nM
Cn1cnnc1C1(c2cccc(-n3cc(C(F)(F)F)c4cc(CNCCC5CCC5)[nH]c4c3=O)c2)CCC1 [Compound T034, 2-(((2-cyclobutylethyl)amino)methyl)-6-(3-(1-(4-methyl-4H-1,2,4-triazol-3-yl)cyclobutyl)phenyl)-4-(trifluoromethyl)-1,6-dihydro-7H-pyrrolo[2,3-c]pyridin-7-one]	<500 nM	< 50 nM
Cn1cnnc1[C@]1(c2cccc(-n3cc(C(F)(F)F)c4cc(CNC5(C)CCC5)[nH]c4c3=O)c2)C[C@H](C)C1 [Compound T035, 6-(3-((1s,3s)-3-methyl-1-(4-methyl-4H-1,2,4-triazol-3-yl)cyclobutyl)phenyl)-2-(((1-methylcyclobutyl)amino)methyl)-4-(trifluoromethyl)-1,6-dihydro-7H-pyrrolo[2,3-c]pyridin-7-one]	<500 nM	< 50 nM
C[C@H]1CCCN(Cc2cc3c(C4CC4)cn(-c4cccc([C@]5(Cc6nncn6C)C[C@H](C)C5)c4)c(=O)c3[nH]2)C1 [Compound T037, 4-cyclopropyl-6-(3-((1s,3R)-3-methyl-1-((4-methyl-4H-1,2,4-triazol-3-yl)methyl)cyclobutyl)phenyl)-2-(((S)-3-methylpiperidin-1-yl)methyl)-1,6-dihydro-7H-pyrrolo[2,3-c]pyridin-7-one]	<500 nM	< 50 nM
Cn1cnnc1C1(c2cccc(-n3cc(C(F)(F)F)c4cc(CN5CCC[C@H](O)C5)[nH]c4c3=O)c2)CCC1 [Compound T038, 2-[[(3S)-3-hydroxy-1-piperidyl]methyl]-6-[3-[1-(4-methyl-1,2,4-triazol-3-yl)cyclobutyl]phenyl]-4-(trifluoromethyl)-1H-pyrrolo[2,3-c]pyridin-7-one]	<500 nM	< 50 nM
CCC(C)CN(C)Cc1cc2c(C(F)(F)F)cn(-c3cccc(C4(c5nncn5C)CCC4)c3)c(=O)c2[nH]1 (stereo not shown) [Compound T040, 2-[[methyl(2-methylbutyl)amino]methyl]-6-[3-[1-(4-methyl-1,2,4-triazol-3-yl)cyclobutyl]phenyl]-4-(trifluoromethyl)-1H-pyrrolo[2,3-c]pyridin-7-one]	<500 nM	< 50 nM
CCN(Cc1cc2c(C(F)(F)F)cn(-c3cccc(C4(c5nncn5C)CCC4)c3)c(=O)c2[nH]1)CC(C)C [Compound T041, 2-[[ethyl(isobutyl)amino]methyl]-6-[3-[1-(4-methyl-1,2,4-triazol-3-yl)cyclobutyl]phenyl]-4-(trifluoromethyl)-1H-pyrrolo[2,3-c]pyridin-7-one]	<500 nM	< 50 nM
CCCN(Cc1cc2c(C(F)(F)F)cn(-c3cccc(C4(c5nncn5C)CCC4)c3)c(=O)c2[nH]1)C(C)C [Compound T042, 2-[[isopropyl(propyl)amino]methyl]-6-[3-[1-(4-methyl-1,2,4-triazol-3-yl)cyclobutyl]phenyl]-4-(trifluoromethyl)-1H-pyrrolo[2,3-c]pyridin-7-one]	<500 nM	< 50 nM
C[C@H](NCc1cc2c(C(F)(F)F)cn(-c3cccc(C4(c5nncn5C)CCC4)c3)c(=O)c2[nH]1)C(C)(C)C [Compound T043, (S)-2-(((3,3-dimethylbutan-2-yl)amino)methyl)-6-(3-(1-(4-methyl-4H-1,2,4-triazol-3-yl)cyclobutyl)phenyl)-4-(trifluoromethyl)-1,6-dihydro-7H-pyrrolo[2,3-c]pyridin-7-one]	<500 nM	< 50 nM
Cn1cnnc1[C@]1(c2cccc(-n3cc(C(F)(F)F)c4cc(CNCCC5CC5)[nH]c4c3=O)c2)C[C@H](C)C1 [Compound T045, 2-(((2-cyclopropylethyl)amino)methyl)-6-(3-((1s,3s)-3-methyl-1-(4-methyl-4H-1,2,4-triazol-3-yl)cyclobutyl)phenyl)-4-(trifluoromethyl)-1,6-dihydro-7H-pyrrolo[2,3-c]pyridin-7-one]	<500 nM	< 50 nM
Cn1cnnc1[C@]1(c2cccc(-n3cc(C(F)(F)F)c4cc(CN5CC[C@H](F)C5)[nH]c4c3=O)c2)C[C@H](C)C1 [Compound T047, 2-(((S)-3-fluoropyrrolidin-1-yl)methyl)-6-(3-((1s,3R)-3-methyl-1-(4-methyl-4H-1,2,4-triazol-3-yl)cyclobutyl)phenyl)-4-(trifluoromethyl)-1,6-dihydro-7H-pyrrolo[2,3-c]pyridin-7-one]	<500 nM	< 50 nM
Cn1cnnc1C1(c2cccc(-n3cc(C(F)(F)F)c4cc(CN5CC6CCC(C6)C5)[nH]c4c3=O)c2)CCC1 [Compound T053, 2-(3-azabicyclo[3.2.1]octan-3-ylmethyl)-6-[3-[1-(4-methyl-1,2,4-triazol-3-yl)cyclobutyl]phenyl]-4-(trifluoromethyl)-1H-pyrrolo[2,3-c]pyridin-7-one]	<500 nM	< 50 nM
Cn1cnnc1C1(c2cccc(-n3cc(C(F)(F)F)c4cc(CN5CCCC6(CC6)C5)[nH]c4c3=O)c2)CCC1 [Compound T054, 2-(5-azaspiro[2.5]octan-5-ylmethyl)-6-[3-[1-(4-methyl-1,2,4-triazol-3-yl)cyclobutyl]phenyl]-4-(trifluoromethyl)-1H-pyrrolo[2,3-c]pyridin-7-one]	<500 nM	< 50 nM
Cn1cnnc1[C@]1(c2cccc(-n3cc(C(F)(F)F)c4cc(CN5CCC[C@H]6C[C@H]65)[nH]c4c3=O)c2)C[C@H](C)C1 [Compound T055, 2-(((1R,6S)-2-azabicyclo [4.1.0]heptan-2-yl)methyl)-6-(3-((1s,3S)-3-methyl-1-(4-methyl-4H-1,2,4-triazol-3-yl)cyclobutyl)phenyl)-4-(trifluoromethyl)-1,6-dihydro-7H-pyrrolo[2,3-c]pyridin-7-one]	<500 nM	< 50 nM
Cn1cnnc1[C@]1(c2cccc(-n3cc(C(F)(F)F)c4cc(CN5CCC[C@@H]6C[C@@H]65)[nH]c4c3=O)c2)C[C@H](C)C1 [Compound T056, 2-(((1 S,6R)-2-azabicyclo [4.1.0]heptan-2-yl)methyl)-6-(3-((1s,3R)-3-methyl-1-(4-methyl-4H-1,2,4-triazol-3-yl)cyclobutyl)phenyl)-4-(trifluoromethyl)-1,6-dihydro-7H-pyrrolo[2,3-c]pyridin-7-one]	<500 nM	< 50 nM
C[C@H]1CCCN(Cc2cc3c(C(F)(F)F)cn(-c4cccc([C@H](c5nncn5C)C5CCC5)c4)c(=O)c3[nH]2)C1 [Compound T060, 6-(3-((R)-cyclobutyl (4-methyl-4H-1,2,4-triazol-3-yl)methyl)phenyl)-2-(((S)-3-methylpiperidin-1-yl)methyl)-4-(trifluoromethyl)-1,6-dihydro-7H-pyrrolo[2,3-c]pyridin-7-one]	<500 nM	< 50 nM
CO[C@H]1C[C@](c2cccc(-n3cc(C(F)(F)F)c4cc(CNC5(C)CCC5)[nH]c4c3=O)c2)(c2nncn2C)C1 [Compound T066, 6-(3-((1r,3r)-3-methoxy-1-(4-methyl-4H-1,2,4-triazol-3-yl)cyclobutyl)phenyl)-2-(((1-methylcyclobutyl)amino)methyl)-4-(trifluoromethyl)-1,6-dihydro-7H-pyrrolo[2,3-c]pyridin-7-one]	<500 nM	< 50 nM
CO[C@H]1C[C@@](c2cccc(-n3cc(C(F)(F)F)c4cc(CNC5(C)CCC5)[nH]c4c3=O)c2)(c2nncn2C)C1 [Compound T067, 6-(3-((1s,3s)-3-methoxy-1-(4-methyl-4H-1,2,4-triazol-3-yl)cyclobutyl)phenyl)-2-(((1-methylcyclobutyl)amino)methyl)-4-(trifluoromethyl)-1,6-dihydro-7H-pyrrolo[2,3-c]pyridin-7-one]	<500 nM	< 50 nM
